Among the data in patent US8202885B2, “Bridged six-membered ring compounds” (Actelion Pharmaceuticals Ltd., priority 2007, dated 2012) are IC50 values, retold here.

This experiment has as its system human Cav3.1 Cav3.2 or Cav3.3 channel. The experiment can be described thus: In vitro assay T channel (FLIPR calcium fluorescence). The format is cell-based. The conditions noted are these: HEK293 cells expressing human Cav3.1, Cav3.2 or Cav3.3; 10 mM Ca2+-induced fluo-4 fluorescence; determined up to 10 μM; read-out: T channel antagonistic activity IC50. The procedure: The T channel antagonistic activity (IC50 values) of the compounds of formula (I) is determined in accordance with the following experimental method and data are shown in Table 1.
Human embryonic kidney (HEK293) cells expressing the human Cav3.1 Cav3.2 or Cav3.3 channel, respectively, are grown in culture medium (DMEM containing 10% heat-inactivated fetal calf serum (FCS), 100 U/ml penicillin, 100 μg/ml streptomycin and 1 mg/ml G418). The cells are seeded at 20.000 cells/well into 384-well black clear bottom sterile plates (poly-L-lysine-coated, Becton Dickinson). The seeded plates are incubated overnight at 37° C. in 5% CO2. The Ca^2+ solution is prepared as 100 mM stock solution in 100 mM tetraethylammoniumchloride (TEA-chloride), 50 mM HEPES, 2.5 mM CaCl2, 5 mM KCl, 1 mM MgCl2, adjusted to pH 7.2 with TEA-hydroxide, for use in the assay at a final concentration of 10 mM. Antagonists are prepared as 10 mM stock solutions in DMSO, then diluted in 384 w plates first in DMSO, then in 100 mM TEA-chloride, 50 mM HEPES, 2.5 mM CaCl2, 5 mM KCl, 1 mM MgCl2, adjusted to pH 7.2 with TEA-hydroxide, to obtain 9× stocks. On the day of the assay, 25 μl of staining buffer (HBSS containing 20 mM HEPES, 0.375 g/l NaHCO3 and 3 μM of the fluorescent calcium indicator fluo-4 AM (1 mM stock solution in DMSO, containing 10% pluronic) is added to each well of the seeded plate. The 384-well cell-plates are incubated for 60 min at 37° C. in 5% CO2 followed by washing with 2×50 μl per well using HBSS containing 0.1% BSA, 20 mM HEPES, 0.375 g/l NaHCO3, leaving 50 […] of this buffer for equilibration at room temperature (30-60 min). Within the Fluorescent Imaging Plate Reader (FLIPR, Molecular Devices), antagonists are added to the plate in a volume of 6.25 μl/well, incubated for 3 min, and finally 6.25 […] of Ca^2+ solution is added. Fluorescence is measured for each well at 2 second intervals for 8 minutes, and the area under the curve of each fluorescence peak is compared to the area of the fluorescence peak induced by 10 mM Ca^2+ with vehicle in place of antagonist. For each antagonist, the IC50 value (the concentration (in nM) of compound needed to inhibit 50% of the Ca^2+-induced fluorescence response) up to 10 μM is determined.
For the molecule `CC(C)C(=O)O[C@@]1(CCN(C)CCCc2nc3ccccc3[nH]2)C[C@H]2CC[C@@H]1C=C2c1ccc(F)cc1` (relative stereo) [Example 8A, rac-Isobutyric acid (1R*,2R*,4R*)-2-(2-{[3-(1H-benzoimidazol-2-yl)-propyl]-methyl-amino}-ethyl)-5-(4-fluoro-phenyl)-bicyclo[2.2.2]oct-5-en-2-yl ester], the IC50 came out at 1.63 µM. The figure for `CN(CCCc1nc2ccccc2[nH]1)CC[C@]1(O)C[C@H]2CC[C@@H]1C=C2c1cccnc1` (relative stereo) [Example 9, rac-(1R*,2R*,4R*)-2-(2-{[3-(1H-Benzoimidazol-2-yl)-propyl]-methyl-amino}-ethyl)-5-pyridin-3-yl-bicyclo[2.2.2]oct-5-en-2-ol] is greater than 10 µM.

As for `CC(C)C(=O)O[C@@]1(CCN(C)CCCc2nc3ccccc3[nH]2)C[C@H]2CC[C@@H]1C=C2c1cccnc1` (relative stereo) [Example 9A, rac-Isobutyric acid (1R*,2R*,4R*)-2-(2-{[3-(1H-benzoimidazol-2-yl)-propyl]-methyl-amino}-ethyl)-5-pyridin-3-yl-bicyclo[2.2.2]oct-5-en-2-yl ester], the half-maximal inhibitory concentration (IC50) was found to be 2.34 µM. Regarding `CN(CCCc1nc2ccccc2[nH]1)CC[C@]1(O)C[C@H]2CC[C@@H]1C=C2c1ccc2ccccc2c1` (relative stereo) [Example 10, rac-(1R*,2R*,4R*)-2-(2-{[3-(1H-Benzoimidazol-2-yl)-propyl]-methyl-amino}-ethyl)-5-naphthalen-2-yl-bicyclo[2.2.2]oct-5-en-2-ol], the IC50 worked out at 5.87 µM.

`CN(CCc1nc2ccccc2[nH]1)CC[C@]1(O)C[C@H]2CC[C@@H]1C=C2c1ccccc1` (relative stereo) [Example 13, rac-(1R*,2R*,4R*)-2-(2-{[2-(1H-Benzoimidazol-2-yl)-ethyl]-methyl-amino}-ethyl)-5-phenyl-bicyclo[2.2.2]oct-5-en-2-ol]: the IC50 was found to be 2.73 µM. With `CC(C)C(=O)O[C@@]1(CCN(C)CCc2nc3ccccc3[nH]2)C[C@H]2CC[C@@H]1C=C2c1ccccc1` (relative stereo) [Example 13A, rac-Isobutyric acid (1R*,2R*,4R*)-2-(2-{[2-(1H-benzoimidazol-2-yl)-ethyl]-methyl-amino}-ethyl)-5-phenyl-bicyclo[2.2.2]oct-5-en-2-yl ester] the figure was 4.34 µM; with `CN(CC[C@]1(O)C[C@H]2CC[C@@H]1C=C2c1ccccc1)Cc1nc2ccccc2[nH]1` (relative stereo) [Example 14, rac-(1R*,2R*,4R*)-2-{2-[(1H-Benzoimidazol-2-ylmethyl)-methyl-amino]-ethyl}-5-phenyl-bicyclo[2.2.2]oct-5-en-2-ol], 8.95 µM. As to `CC(C)C(=O)O[C@@]1(CCN(C)Cc2nc3ccccc3[nH]2)C[C@H]2CC[C@@H]1C=C2c1ccccc1` (relative stereo) [Example 14A, rac-Isobutyric acid (1R*,2R*,4R*)-2-{2-[(1H-benzoimidazol-2-ylmethyl)-methyl-amino]-ethyl}-5-phenyl-bicyclo[2.2.2]oct-5-en-2-yl ester], the IC50 stood at 3.18 µM.

In the case of `CN(CCCc1ccccc1)CC[C@]1(O)C[C@H]2CC[C@@H]1C=C2c1ccccc1` (relative stereo) [Example 15, rac-(1R*,2R*,4R*)-2-{2-[Methyl-(3-phenyl-propyl)-amino]-ethyl}-5-phenyl-bicyclo[2.2.2]oct-5-en-2-ol], the IC50 is greater than 10 µM. For `CC(C)C(=O)O[C@@]1(CCN(C)CCCc2ccccc2)C[C@H]2CC[C@@H]1C=C2c1ccccc1` (relative stereo) [Example 15A, rac-Isobutyric acid (1R*,2R*,4R*)-2-{2-[methyl-(3-phenyl-propyl)-amino]-ethyl}-5-phenyl-bicyclo[2.2.2]oct-5-en-2-yl ester], the IC50 came to 8.63 µM. With `CCCC1=C(C)[C@H]2CC[C@@H]1C[C@@]2(O)CCN(C)CCCc1nc2ccccc2[nH]1` (relative stereo) [Example 16, rac-(1R*,2R*,4R*)-2-(2-{[3-(1H-Benzoimidazol-2-yl)-propyl]-methyl-amino}-ethyl)-6-methyl-5-propyl-bicyclo[2.2.2]oct-5-en-2-ol] the figure was 5.69 µM. In the case of `CCCC1=C(C)[C@H]2CC[C@@H]1C[C@]2(CCN(C)CCCc1nc2ccccc2[nH]1)OC(=O)C(C)C` (relative stereo) [Example 16A, rac-Isobutyric acid (1R*,2R*,4R*)-2-(2-{[3-(1H-benzoimidazol-2-yl)-propyl]-methyl-amino}-ethyl)-6-methyl-5-propyl-bicyclo[2.2.2]oct-5-en-2-yl ester], the IC50 was found to be 2.39 µM. As for `CC1=C(c2ccccc2)[C@H]2CC[C@@H]1C[C@@]2(O)CCN(C)CCCc1nc2ccccc2[nH]1` (relative stereo) [Example 17, rac-(1R*,2R*,4R*)-2-(2-{[3-(1H-Benzoimidazol-2-yl)-propyl]-methyl-amino}-ethyl)-5-methyl-6-phenyl-bicyclo[2.2.2]oct-5-en-2-ol], the IC50 came out at 1.26 µM. Take `CC1=C(c2ccccc2)[C@H]2CC[C@@H]1C[C@]2(O)CCN(C)CCCc1nc2ccccc2[nH]1` (relative stereo) [Example 17B, rac-(1R*,2S*,4R*)-2-(2-{[3-(1H-Benzoimidazol-2-yl)-propyl]-methyl-amino}-ethyl)-5-methyl-6-phenyl-bicyclo[2.2.2]oct-5-en-2-ol]: the IC50 worked out at 0.751 µM. As for `CC1=C(c2ccccc2)[C@H]2CC[C@@H]1C[C@@]2(CCN(C)CCCc1nc2ccccc2[nH]1)OC(=O)C(C)C` (relative stereo) [Example 17C, rac-Isobutyric acid (1R*,2S*,4R*)-2-(2-{[3-(1H-benzoimidazol-2-yl)-propyl]-methyl-amino}-ethyl)-5-methyl-6-phenyl-bicyclo[2.2.2]oct-5-en-2-yl ester], the IC50 was 0.55 µM. With `COC(=O)c1cccc2[nH]c(CCCN(C)CC[C@]3(O)C[C@H]4CC[C@@H]3C=C4c3ccccc3)nc12` (relative stereo) [Example 19, rac-2-(3-{[2-((1R*,2R*,4R*)-2-Hydroxy-5-phenyl-bicyclo[2.2.2]oct-5-en-2-yl)-ethyl]-methyl-amino}-propyl)-1H-benzoimidazole-4-carboxylic acid methyl ester] the figure was 1.57 µM; with `COC(=O)c1cccc2[nH]c(CCCN(C)CC[C@]3(OC(=O)C(C)C)C[C@H]4CC[C@@H]3C=C4c3ccccc3)nc12` (relative stereo) [Example 19A, rac-2-(3-{[2-((1R*,2R*,4R*)-2-Isobutyryloxy-5-phenyl-bicyclo[2.2.2]oct-5-en-2-yl)-ethyl]-methyl-amino}-propyl)-1H-benzoimidazole-4-carboxylic acid methyl ester], 1.71 µM; with `COC(=O)c1ccc2[nH]c(CCCN(C)CC[C@]3(O)C[C@H]4CC[C@@H]3C=C4c3ccccc3)nc2c1` (relative stereo) [Example 20, rac-2-(3-{[2-((1R*,2R*,4R*)-2-Hydroxy-5-phenyl-bicyclo[2.2.2]oct-5-en-2-yl)-ethyl]-methyl-amino}-propyl)-1H-benzoimidazole-5-carboxylic acid methyl ester], greater than 10 µM.

As to `COC(=O)c1ccc2[nH]c(CCCN(C)CC[C@]3(OC(=O)C(C)C)C[C@H]4CC[C@@H]3C=C4c3ccccc3)nc2c1` (relative stereo) [Example 20A, rac-2-(3-{[2-((1R*,2R*,4R*)-2-Isobutyryloxy-5-phenyl-bicyclo[2.2.2]oct-5-en-2-yl)-ethyl]-methyl-amino}-propyl)-1H-benzoimidazole-5-carboxylic acid methyl ester], the half-maximal inhibitory concentration (IC50) was found to be 4.57 µM. Regarding `CN(CCCc1nc2ccccc2[nH]1)CC[C@]1(O)C[C@H]2CC[C@@H]1C=C2c1cccs1` (relative stereo) [Example 21, rac-(1R*,2R*,4R*)-2-(2-{[3-(1H-Benzoimidazol-2-yl)-propyl]-methyl-amino}-ethyl)-5-thiophen-2-yl-bicyclo[2.2.2]oct-5-en-2-ol], the IC50 turned out to be 3.47 µM.

As for `COc1ccc(C2=C[C@H]3CC[C@@H]2C[C@]3(CCN(C)CCCc2nc3ccccc3[nH]2)OC(=O)C(C)C)cc1` (relative stereo) [Example 22A, rac-Isobutyric acid (1R*,2R*,4R*)-2-(2-{[3-(1H-benzoimidazol-2-yl)-propyl]-methyl-amino}-ethyl)-5-(4-methoxy-phenyl)-bicyclo[2.2.2]oct-5-en-2-yl ester], the IC50 was 6.93 µM.
